Assay results published in US7470707B2, “Crystalline monohydrate clopidogrel naphthalenedisulfonate and process of preparation” (Hanmi Pharm. Co., Ltd, priority 2004, dated 2008).
Counter-ions that a name gives are not always drawn. Like-named read-outs stand apart in the source and are kept apart here. Blank lines part the entries; values can stand above or below the compound they belong to.

Tests used:
[1] = Experimental: Effects on the bleeding time of the conventional clopidogrel hydrogen sulfate obtained in Comparative Example 1 and the inventive clopidogrel 2-naphthalenesulfonate and clopidogrel 1,5-naphthalenedisulfonate monohydrate obtained in Examples 1 and 2, respectively, were tested using rat in accordance with the standard method (see Dejana E & Villa S, Thromb. Haemostas. 48: 108-111, 1982). The bleeding time is an index representing the extent of thrombus formed by platelet aggregation and tests were performed using male and female rats.
Forty 11 to 12-weeks old male and female Sprague-Dawley rats (average weight: 270±25 g) were divided into four groups each consisting of five male rats and five female rats, and the male rats of the first group were each orally administered with 5.0 mg/kg of clopidogrel hydrogen sulfate (3.83 mg/kg as clopidogrel) and the female rats of the first group were each orally administered with 2.5 mg/kg (1.92 mg/kg as clopidogrel). For the second group, the male and female rats were orally each administered with 6.30 mg/kg and 3.15 mg/kg of clopidogrel 2-naphthalenesulfonate, respectively, and for the third group, the male and female rats were each orally administered with 5.65 mg/kg and 2.83 mg/kg of clopidogrel 1,5-naphthalenedisulfonate monohydrate, respectively. The drug was orally administered in the form of 1% DMSO solution in an amount in volume of 10 ml/kg body weight. As a comparison, only 1% DMSO solution was administered to the last group of rats.
After fixing an unanesthetized rat with an experimental holder, the tail of the rat was pierced at a position of 1.5 cm from the end of tail using a need of 26 G×½, 0.45×13 mm at a depth of 1 mm. The time of bleeding to cease was measured with absorbing the bleeding blood on a filter paper every 10 second.

[2] = 60±2° C., 75±5% RH; for Relative amount compared to the initial amount: HPLC condition A; for Amount of hydrolyzed impurities (formula (III)) of an acid addition salt of clopidogrel: HPLC condition B; for Amount of levorotatory isomers (formula (IV)) of an acid addition salt of clopidogrel: HPLC condition C
Experimental: Condition A: For the measurement of an assay of an acid addition salt of clopidogrel
• Column: Kromasil C18, 5 μm (250 mm×4.6 mm) • Detector: 220 nm • Flow rate: 1.5 ml/minute • Mobile phase: Na2HPO4—NaH2PO4 buffer solution: THF: CH3CN=5:2:3 (v/v) Condition B: For the measurement of an amount of hydrolyzed impurities of an acid addition salt of clopidogrel • Column: Capcellpak C18 MG, 5 μm (250 mm×4.6 mm) • Detector: 210 nm • Flow rate: 1.0 ml/min. • Mobile phase: KH2PO4 buffer solution/CH3CN (70/30): KH2PO4 buffer solution/CH3CN (30/70)=0:100 100:0 (v/v, gradient elution) Condition C: For the measurement of an optical purity of an acid addition salt of clopidogrel • Column: Chiralpak AD, 5 μm (250 mm×4.6 mm) • Detector: 210 nm • Flow rate: 1.0 ml/min. • Mobile phase: n-hexane: isopropanol=90:10 (v/v)
(§1) The assay of the acid addition salt of clopidogrel was measured using HPLC condition A, the amount of hydrolyzed impurities of the acid addition salt of clopidogrel was measured using HPLC condition B, the optical purity of the acid addition salt of clopidogrel (i.e., the amount of the levorotatory isomers) was measured using the HPLC condition C, and the water content of the acid addition salt of clopidogrel was measured with a Karl-Fisher titrator.

[3] = 60±2° C., 75±5% relative humidity
Experimental: as §1

[4] = Female Sprague-Dawley rats, oral dose corresponding to 1.92 mg/kg of clopidogrel
[5] = Male Sprague-Dawley rats, oral dose corresponding to 3.83 mg/kg of clopidogrel

Relative amount compared to the initial amount ([2]; 0 day): 100%
Amount of hydrolyzed impurities (formula (III)) of an acid addition salt of clopidogrel ([2]; 0 day): 0.0%
Amount of levorotatory isomers (formula (IV)) of an acid addition salt of clopidogrel ([2]; 0 day, Monohydrate): 0.10%
Relative amount compared to the initial amount ([2]; 7 days, Monohydrate): 100%
Amount of levorotatory isomers (formula (IV)) of an acid addition salt of clopidogrel ([2]; 7 days, Monohydrate): 0.10%
Relative amount compared to the initial amount ([2]; 14 days, Monohydrate): 100%
Amount of hydrolyzed impurities (formula (III)) of an acid addition salt of clopidogrel ([2]; 14 days, Monohydrate): 0.02%
Amount of levorotatory isomers (formula (IV)) of an acid addition salt of clopidogrel ([2]; 14 days, Monohydrate): 0.10%
Relative amount compared to the initial amount ([2]; 21 days, Monohydrate): 100%
Amount of levorotatory isomers (formula (IV)) of an acid addition salt of clopidogrel ([2]; 21 days, Monohydrate): 0.09%
Relative amount compared to the initial amount ([2]; 28 days, Monohydrate): 99.9%
Amount of hydrolyzed impurities (formula (III)) of an acid addition salt of clopidogrel ([2]; 28 days, Monohydrate): 0.04%
Amount of levorotatory isomers (formula (IV)) of an acid addition salt of clopidogrel ([2]; 28 days, Monohydrate): 0.11%
Relative amount compared to the initial amount ([2]; 35 days, Monohydrate): 99.9%
Amount of hydrolyzed impurities (formula (III)) of an acid addition salt of clopidogrel ([2]; 35 days, Monohydrate): 0.05%
Amount of levorotatory isomers (formula (IV)) of an acid addition salt of clopidogrel ([2]; 35 days, Monohydrate): 0.10%
Water content ([3]; 0 day, Monohydrate): 1.8%
Water content ([3]; 7 days, Monohydrate): 1.8%
Water content ([3]; 14 days, Monohydrate): 1.9%
Water content ([3]; 21 days, Monohydrate): 1.9%
Water content ([3]; 28 days, Monohydrate): 1.8%
Water content ([3]; 35 days, Monohydrate): 1.9%
SMILES: COC(=O)[C@H](c1ccccc1Cl)N1CCc2sccc2C1 [1,5-Naphthalenedisulfonate monohydrate, Clopidogrel 1,5-naphthalenedisulfonate Monohydrate]
Bleeding time ([1]; Female Sprague-Dawley rats, oral dose corresponding to 1.92 mg/kg of clopidogrel, Monohydrate): 152.5 ± 3.5 s
Bleeding time ([1]; Male Sprague-Dawley rats, oral dose corresponding to 3.83 mg/kg of clopidogrel, Monohydrate): 163 ± 5.8 s

Relative amount compared to the initial amount ([2]; 0 day): 100%
Amount of hydrolyzed impurities (formula (III)) of an acid addition salt of clopidogrel ([2]; 0 day): 0.0%
Amount of levorotatory isomers (formula (IV)) of an acid addition salt of clopidogrel ([2]; 0 day): 0.10%
Relative amount compared to the initial amount ([2]; 7 days): 99.1%
Amount of levorotatory isomers (formula (IV)) of an acid addition salt of clopidogrel ([2]; 7 days): 0.10%
Relative amount compared to the initial amount ([2]; 14 days): 99.3%
Amount of hydrolyzed impurities (formula (III)) of an acid addition salt of clopidogrel ([2]; 14 days): 0.12%
Amount of levorotatory isomers (formula (IV)) of an acid addition salt of clopidogrel ([2]; 14 days): 0.10%
Relative amount compared to the initial amount ([2]; 21 days): 99.1%
Amount of levorotatory isomers (formula (IV)) of an acid addition salt of clopidogrel ([2]; 21 days): 0.10%
Relative amount compared to the initial amount ([2]; 28 days): 99.0%
Amount of hydrolyzed impurities (formula (III)) of an acid addition salt of clopidogrel ([2]; 28 days): 0.16%
Amount of levorotatory isomers (formula (IV)) of an acid addition salt of clopidogrel ([2]; 28 days): 0.11%
Relative amount compared to the initial amount ([2]; 35 days): 99.2%
Amount of hydrolyzed impurities (formula (III)) of an acid addition salt of clopidogrel ([2]; 35 days): 0.18%
Amount of levorotatory isomers (formula (IV)) of an acid addition salt of clopidogrel ([2]; 35 days): 0.13%
Water content ([3]; 0 day): 0.1%
Water content ([3]; 7 days): 0.1%
Water content ([3]; 14 days): 0.1%
Water content ([3]; 21 days): 0.1%
Water content ([3]; 28 days): 0.1%
Water content ([3]; 35 days): 0.1%
SMILES: COC(=O)[C@H](c1ccccc1Cl)N1CCc2sccc2C1 [2-Naphthalenesulfonate, Clopidogrel 2-naphthalenesulfonate]
Bleeding time [1, 4]: 157 ± 10.6 s
Bleeding time [1, 5]: 190 ± 5.0 s

Relative amount compared to the initial amount ([2]; 0 day): 100%
Amount of hydrolyzed impurities (formula (III)) of an acid addition salt of clopidogrel ([2]; 0 day): 0.0%
Amount of levorotatory isomers (formula (IV)) of an acid addition salt of clopidogrel ([2]; 0 day): 0.35%
Relative amount compared to the initial amount ([2]; 7 days): 99.6%
Amount of levorotatory isomers (formula (IV)) of an acid addition salt of clopidogrel ([2]; 7 days): 0.35%
Relative amount compared to the initial amount ([2]; 14 days): 98.7%
Amount of hydrolyzed impurities (formula (III)) of an acid addition salt of clopidogrel ([2]; 14 days): 0.63%
Amount of levorotatory isomers (formula (IV)) of an acid addition salt of clopidogrel ([2]; 14 days): 0.40%
Relative amount compared to the initial amount ([2]; 21 days): 97.7%
Amount of levorotatory isomers (formula (IV)) of an acid addition salt of clopidogrel ([2]; 21 days): 0.49%
Relative amount compared to the initial amount ([2]; 28 days): 94.4%
Amount of hydrolyzed impurities (formula (III)) of an acid addition salt of clopidogrel ([2]; 28 days): 2.0%
Amount of levorotatory isomers (formula (IV)) of an acid addition salt of clopidogrel ([2]; 28 days): 0.67%
Relative amount compared to the initial amount ([2]; 35 days): 87.0%
Amount of hydrolyzed impurities (formula (III)) of an acid addition salt of clopidogrel ([2]; 35 days): 4.8%
Amount of levorotatory isomers (formula (IV)) of an acid addition salt of clopidogrel ([2]; 35 days): 1.08%
Water content ([3]; 0 day): 0.1%
Water content ([3]; 7 days): 0.1%
Water content ([3]; 14 days): 0.1%
Water content ([3]; 21 days): 0.4%
Water content ([3]; 28 days): 2.0%
Water content ([3]; 35 days): 4.8%
SMILES: COC(=O)[C@H](c1ccccc1Cl)N1CCc2sccc2C1 [Hydrogen sulfate, Clopidogrel Hydrogen Sulfate, reference compound]
Bleeding time [1, 4]: 127.5 ± 10.6 s
Bleeding time [1, 5]: 135 ± 8.7 s
